Data published in US5892041A, “Fused indolecarboxamides: dopamine receptor subtype specific ligands” (Neurogen Corporation, priority 1996, dated 1999).
Where a name gives a salt, the structure may show the parent alone.

Tests used:
D3 receptors = biological target: T1, D3 receptors (Chlorocebus aethiops, UniProt P52703); experiment: D3 receptor binding ([3H]YM 09151-2 displacement, COS cell pellets with recombinant receptor); parameters: species or system African Green monkey; conditions: 0.5 nM 3H-YM 09151-2; recombinant receptor in COS cells; nonspecific with 1 mM spiperone; text also says rat striatal homogenates
T1 construct: expressed in transfected cells; host or cells: COS cells
T1 sequence (P52703 whole entry): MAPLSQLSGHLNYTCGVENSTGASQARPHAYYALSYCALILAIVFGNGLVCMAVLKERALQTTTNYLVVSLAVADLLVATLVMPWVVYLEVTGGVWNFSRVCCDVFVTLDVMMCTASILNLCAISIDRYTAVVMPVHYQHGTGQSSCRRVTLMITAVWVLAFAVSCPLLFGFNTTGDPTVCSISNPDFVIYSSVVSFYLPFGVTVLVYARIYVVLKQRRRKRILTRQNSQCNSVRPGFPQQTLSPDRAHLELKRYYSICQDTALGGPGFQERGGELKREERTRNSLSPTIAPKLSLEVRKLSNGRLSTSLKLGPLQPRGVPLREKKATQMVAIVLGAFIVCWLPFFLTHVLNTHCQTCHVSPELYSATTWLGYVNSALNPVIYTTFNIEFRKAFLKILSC
Description: (§1) Pellets of COS cells containing recombinantly produced D2 or D3 receptors from African Green monkey were used for the assays. The sample is homogenized in 100 volumes (w/vol) of 0.05M Tris HCl buffer at 4° C. and pH 7.4. The sample is then centrifuged at 30,000×g and resuspended and rehomogenized. The sample is then centrifuged as described and the final tissue sample is frozen until use. The tissue is resuspended 1:20 (wt/vol) in 0.05M Tris HCl buffer containing 100 mM NaCl.
(§2) Incubations are carried out at 48° C. and contain 0.4 ml of tissue sample, 0.5 nM ^3 H-YM 09151-2 and the compound of interest in a total incubation of 1.0 ml. Nonspecific binding is defined as that binding found in the presence of […] spiperone; without further additions, nonspecific binding is less than 20% of total binding. The binding characteristics of representative compounds of the invention for D2 and D3 receptor subtypes are shown in Table 2 for rat striatal homogenates.

D2 receptors = biological target: T2, D2 receptors (Chlorocebus aethiops, UniProt P52702); experiment: D2 receptor binding ([3H]YM 09151-2 displacement, COS cell pellets with recombinant receptor); parameters: species or system African Green monkey; conditions: 0.5 nM 3H-YM 09151-2; recombinant receptor in COS cells; nonspecific with 1 mM spiperone; text also says rat striatal homogenates
T2 construct: 3H-YM 09151-2 displacement
T2 sequence (P52702 whole entry): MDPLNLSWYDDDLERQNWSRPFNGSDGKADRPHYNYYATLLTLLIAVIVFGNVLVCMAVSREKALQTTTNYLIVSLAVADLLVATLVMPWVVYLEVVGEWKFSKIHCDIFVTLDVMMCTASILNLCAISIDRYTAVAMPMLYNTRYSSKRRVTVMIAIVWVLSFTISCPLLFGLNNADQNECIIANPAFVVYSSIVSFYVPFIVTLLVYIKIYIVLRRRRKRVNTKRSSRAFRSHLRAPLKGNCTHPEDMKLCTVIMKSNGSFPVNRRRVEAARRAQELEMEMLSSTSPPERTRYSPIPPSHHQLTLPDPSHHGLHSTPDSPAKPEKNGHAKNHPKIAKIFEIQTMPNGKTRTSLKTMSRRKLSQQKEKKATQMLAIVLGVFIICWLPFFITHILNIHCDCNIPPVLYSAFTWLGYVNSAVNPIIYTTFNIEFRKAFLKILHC
Description: as §1, §2

SMILES	Ki (D3 receptors)	Ki (D2 receptors)
O=C(NCCCCN1CCN(c2cccc(Cl)c2Cl)CC1)c1ccc2[nH]c3c(c2c1)CCCC3 [Compound 1, N-(1-{4-[4-(2,3-dichlorophenyl)piperazine-1-yl]}butyl)-1,2,3 4-tetrahydrocarbazole-6-carboxamide hydrochloride]	0.5 nM	250 nM
Cn1c2ccccc2c2cc(C(=O)NCCCCN3CCN(c4cccc(Cl)c4Cl)CC3)ccc21 [Compound 3, N-(1-{4-[4-(2,3-dichlorophenyl)piperazine-1-yl]}butyl)-9-methylcarbazole-3-carboxamide hydrochloride]	2 nM	540 nM
O=C(NCCCCN1CCN(c2cccc(Cl)c2Cl)CC1)c1ccc2c(c1)[nH]c1ccccc12 [Compound 4, N-(1-{4-[4-(2,3-dichlorophenyl)piperazine-1-yl]}butyl)-9H-carbazole-2-carboxamide hydrochloride]	1 nM	750 nM
